The source of these data is ChEMBL document CHEMBL1123583 (J Med Chem, 1987).

Data set [1] is described as follows: Acid dissociation constant was determined for the compound. It is filed as ADME.
In data set [2] the target is Histamine H2 receptor (Cavia porcellus) (UniProt P47747).
Data set [3] has the same target. This is another data set of the same source.
The target is the same in data set [4]. The source holds these as a separate data set.
In data set [5] the target is T1, Histamine H2 receptor (Cavia porcellus, UniProt P47747). Nature of the data set: Antagonistic activity of guinea pig Histamine H2 receptor expressed as pA2 at pH 7.0. The class given is functional. The note with it: read-out: pA2 (converted).
In data set [6] the target is T1, Histamine H2 receptor. The data set can be described thus: Antagonistic activity of guinea pig Histamine H2 receptor expressed as pA2 at pH 7.4. As to conditions: read-out: pA2 (converted). It is filed as functional.
The target in data set [7] is T1, Histamine H2 receptor. Nature of the data set: Antagonistic activity of guinea pig Histamine H2 receptor expressed as pA2 at pH 7.8. The class given is functional. As to conditions: read-out: pA2 (converted).

Sequence of Histamine H2 receptor (Cavia porcellus) (P47747 whole entry): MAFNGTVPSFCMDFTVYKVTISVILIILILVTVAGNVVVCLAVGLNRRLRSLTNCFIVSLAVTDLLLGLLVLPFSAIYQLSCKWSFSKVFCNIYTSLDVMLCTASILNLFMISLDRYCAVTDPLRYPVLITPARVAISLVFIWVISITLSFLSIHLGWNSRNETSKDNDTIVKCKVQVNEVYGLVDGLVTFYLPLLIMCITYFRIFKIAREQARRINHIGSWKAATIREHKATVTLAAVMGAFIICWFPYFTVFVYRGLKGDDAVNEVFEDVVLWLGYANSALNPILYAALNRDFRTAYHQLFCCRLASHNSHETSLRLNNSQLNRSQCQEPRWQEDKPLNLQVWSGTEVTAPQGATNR
T1 sequence (P47747 whole entry): as above

Consider `CN/C(=N/CCSCc1nc[nH]c1C)NC#N` [CIMETIDINE], for which, in data set [1] (read-out: pKa1), the pKa was determined as 6.98.
On to `NCCc1c[nH]cn1` [HISTAMINE], for which the pKa was 9.57 in data set [1] (read-out: pKa1) and 6.1 in data set [1] (read-out: pKa2). In addition, the pD2 in data set [2] turned out to be 5.89; in data set [3], 5.81; in data set [4], 5.88.
Regarding `CC(C)/N=C/Nc1ccc(-c2c[nH]cn2)cc1` [MIFENTIDINE], the pKa stood at 8.82 in data set [1] (read-out: pKa1) and 5.64 in data set [1] (read-out: pKa2). Also, the Kb at Histamine H2 receptor [5] was 45.7 nM; on Histamine H2 receptor [6], 17.4 nM; at Histamine H2 receptor [7], 11.7 nM.
